This is an account of results in publication PMC8509980 (Chinese Medical Journal, 2021).

This assay addresses T1, sineoculis homeobox homolog 1 (SIX1) (Homo sapiens, UniProt Q15475).
T1 sequence (Q15475 1-284): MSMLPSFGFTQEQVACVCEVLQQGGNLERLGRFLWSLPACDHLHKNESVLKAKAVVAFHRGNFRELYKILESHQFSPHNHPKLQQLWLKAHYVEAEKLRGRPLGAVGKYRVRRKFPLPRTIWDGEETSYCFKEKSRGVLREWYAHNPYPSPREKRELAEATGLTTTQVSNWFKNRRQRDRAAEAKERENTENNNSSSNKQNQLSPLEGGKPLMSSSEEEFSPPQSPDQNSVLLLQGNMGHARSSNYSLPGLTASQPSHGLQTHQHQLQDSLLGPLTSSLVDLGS
T1 sequence (Q99502 1-592 partner): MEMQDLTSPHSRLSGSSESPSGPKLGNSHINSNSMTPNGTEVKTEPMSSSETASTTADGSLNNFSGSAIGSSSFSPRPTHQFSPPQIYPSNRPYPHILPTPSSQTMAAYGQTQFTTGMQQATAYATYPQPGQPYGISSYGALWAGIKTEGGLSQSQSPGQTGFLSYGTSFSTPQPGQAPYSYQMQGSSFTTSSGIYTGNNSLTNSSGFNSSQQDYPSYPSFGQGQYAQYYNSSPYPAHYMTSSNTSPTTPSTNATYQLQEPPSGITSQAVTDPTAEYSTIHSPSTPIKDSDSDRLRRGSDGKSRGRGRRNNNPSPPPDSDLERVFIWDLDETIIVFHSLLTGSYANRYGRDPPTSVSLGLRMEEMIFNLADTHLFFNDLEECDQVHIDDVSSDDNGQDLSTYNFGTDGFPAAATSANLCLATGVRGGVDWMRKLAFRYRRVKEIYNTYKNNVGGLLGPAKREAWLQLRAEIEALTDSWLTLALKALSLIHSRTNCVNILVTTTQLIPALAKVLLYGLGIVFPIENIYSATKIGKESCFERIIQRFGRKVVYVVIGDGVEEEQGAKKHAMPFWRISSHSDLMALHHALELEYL
Briefly: AlphaScreen disruption of purified GST-SIX1/His-EYA1 interaction. Type of assay: binding. A general note: In Alpha technology, singlet oxygen from a donor bead excites a nearby acceptor bead.

NSC0191: it took 12.6 ± 1.15 µM to reach half-maximal inhibition (IC50). Consider NSC0933, for which the IC50 worked out at 83.4 ± 7.24 µM.

For orientation: IC50 means the concentration that inhibits the measured activity by half. A low value points to greater potency.
